Data reported in paper PMC11012124, “Synthesis of Novel Triazine-Based Chalcones and 8,9-dihydro-7H-pyrimido[4,5-b][1,4]diazepines as Potential Leads in the Search of Anticancer, Antibacterial and Antifungal Agents” (International Journal of Molecular Sciences, 2024).

Key:
[1] = test system: 60 cancer cell lines; assay: NCI-60 one-dose screen (10 μM); type: cell-based; settings: Homo sapiens; one dose of 10 μM, mean over 60 cancer cell lines; read-out: Mean Growth Percent (MGP)
From the text: Additionally, the mean of the growth percentages (MGP) of each compound against all the 60 cancer cell lines is also reported, which is used as one of the selection criteria to continue with tests at five concentration doses.

[2] = test system: MOLT-4; assay: cells; settings: Homo sapiens, MOLT-4, 48 h; for CC50: read-out: LC50
[3] = test system: RPMI-8226; assay: cells; settings: Homo sapiens, RPMI-8226, 48 h; for CC50: read-out: LC50
[4] = test system: A549/ATCC; assay: cells; settings: Homo sapiens, A549, 48 h; for CC50: read-out: LC50
[5] = test system: EKVX; assay: cells; settings: Homo sapiens, 48 h; for CC50: read-out: LC50
[6] = test system: HOP-62; assay: cells; settings: Homo sapiens, HOP-62, 48 h; for CC50: read-out: LC50
[7] = test system: NCI-H322M; assay: cells; settings: Homo sapiens, 48 h; for CC50: read-out: LC50
[8] = test system: NCI-H522; assay: cells; settings: Homo sapiens, NCI-H522, 48 h; for CC50: read-out: LC50
[9] = test system: COLO 205; assay: cells; settings: Homo sapiens, COLO 205, 48 h; for CC50: read-out: LC50
[10] = test system: HCC-2998; assay: cells; settings: Homo sapiens, HCC 2998, 48 h; for CC50: read-out: LC50
[11] = test system: HCT-116; assay: cells; settings: Homo sapiens, HCT-116, 48 h; for CC50: read-out: LC50
[12] = test system: HCT-15; assay: cells; settings: Homo sapiens, HCT-15, 48 h; for CC50: read-out: LC50
[13] = test system: HT29; assay: cells; settings: Homo sapiens, HT-29, 48 h; for CC50: read-out: LC50
[14] = test system: KM12; assay: cells; settings: Homo sapiens, KM12, 48 h; for CC50: read-out: LC50
[15] = test system: SW-620; assay: cells; settings: Homo sapiens, SW-620, 48 h; for CC50: read-out: LC50
[16] = test system: SF-539; assay: cells; settings: Homo sapiens, SF-539, 48 h; for CC50: read-out: LC50, SF-539, 48 h
[17] = test system: SNB-19; assay: cells; settings: Homo sapiens, SNB-19, 48 h; for CC50: read-out: LC50
[18] = test system: U251; assay: cells; settings: Homo sapiens, U-251, 48 h; for GI50: U251, 48 h; for CC50: read-out: LC50
[19] = test system: MALME-3M; assay: cells; settings: Homo sapiens, 48 h; for CC50: read-out: LC50
[20] = test system: M14; assay: cells; settings: Homo sapiens, M14, 48 h; for CC50: read-out: LC50
[21] = test system: SK-MEL-28; assay: cells; settings: Homo sapiens, SK-MEL-28, 48 h; for CC50: read-out: LC50
[22] = test system: UACC-62; assay: cells; settings: Homo sapiens, UACC-62, 48 h; for CC50: read-out: LC50
[23] = test system: OVCAR-8; assay: cells; settings: Homo sapiens, OVCAR-8, 48 h; for CC50: read-out: LC50
[24] = test system: SK-OV-3; assay: cells; settings: Homo sapiens, SK-OV-3, 48 h; for CC50: read-out: LC50
[25] = test system: ACHN; assay: cells; settings: Homo sapiens, 48 h; for CC50: read-out: LC50
[26] = test system: CAKI-1; assay: cells; settings: Homo sapiens, CAKI-1, 48 h; for CC50: read-out: LC50
[27] = test system: RXF 393; assay: cells; settings: Homo sapiens, RXF 393, 48 h; for CC50: read-out: LC50
[28] = test system: UO-31; assay: cells; settings: Homo sapiens, UO-31, 48 h; for CC50: read-out: LC50
[29] = test system: PC-3; assay: cells; settings: Homo sapiens, PC-3, 48 h; for CC50: read-out: LC50
[30] = test system: DU-145; assay: cells; settings: Homo sapiens, DU-145, 48 h; for CC50: read-out: LC50
[31] = test system: MDA-MB-231/ATCC; assay: cells; settings: Homo sapiens, MDA-MB-231, 48 h; for CC50: read-out: LC50
[32] = test system: HS 578T; assay: cells; settings: Homo sapiens, 48 h; for CC50: read-out: LC50
[33] = test system: BT-549; assay: cells; settings: Homo sapiens, BT-549, 48 h; for CC50: read-out: LC50
[34] = test system: T-47D; assay: cells; settings: Homo sapiens, T47D, 48 h; for CC50: read-out: LC50
[35] = test system: MDA-MB-468; assay: cells; settings: Homo sapiens, MDA-MB-468, 48 h; for CC50: read-out: LC50

Compound `CN(C)c1nc(NCCNS(=O)(=O)c2ccc(C(=O)/C=C/c3ccc(C(F)(F)F)cc3)cc2)nc(N2CCOCC2)n1` [23g] has an activity at 10 µM [1] of -14.8%, a GI50 [2] of 3.48 µM and a CC50 [2] of over 100 µM. It also gave a GI50 [3] of 1.77 µM, a CC50 [3] of over 100 µM and a GI50 [4] of 13.8 µM. For the same compound, the CC50 [4] was 62.3 µM, the GI50 [5] was 14.3 µM and the CC50 [5] was 52.5 µM. It also gave a GI50 [6] of 17 µM, a CC50 [6] of 61.3 µM and a GI50 [7] of 14.2 µM. The CC50 [7] was 52.1 µM, the GI50 [8] was 15.2 µM and the CC50 [8] was 58.2 µM. The GI50 [9] was 15 µM, the CC50 [9] was 69.8 µM and the GI50 [10] was 12.9 µM. For the same compound, the CC50 [10] was 52.5 µM, the GI50 [11] was 3.19 µM and the CC50 [11] was 33.5 µM. For the same compound, the GI50 [12] was 1.86 µM, the CC50 [12] was 7.07 µM and the GI50 [13] was 2.06 µM. The CC50 [13] was 9.88 µM, the GI50 [14] was 8.95 µM and the CC50 [14] was 68.3 µM. It also gave a GI50 [15] of 3.3 µM, a CC50 [15] of 36.5 µM and a GI50 [16] of 13 µM. For the same compound, the CC50 [16] was 50.7 µM, the GI50 [17] was 13.5 µM and the CC50 [17] was 51.3 µM. The GI50 [18] was 2.95 µM, the CC50 [18] was 40.7 µM and the GI50 [19] was 14.4 µM. For the same compound, the CC50 [19] was 53 µM, the GI50 [20] was 9.83 µM and the CC50 [20] was 49.5 µM. The GI50 [21] was 14.4 µM, the CC50 [21] was 52.6 µM and the GI50 [22] was 11.2 µM. The CC50 [22] was 48.5 µM, the GI50 [23] was 14.4 µM and the CC50 [23] was 54.9 µM. It also gave a GI50 [24] of 14.7 µM, a CC50 [24] of 59 µM and a GI50 [25] of 8.6 µM. The CC50 [25] was 45.5 µM, the GI50 [26] was 11.4 µM and the CC50 [26] was 51.7 µM. The GI50 [27] was 11.5 µM, the CC50 [27] was 49 µM and the GI50 [28] was 11.9 µM. For the same compound, the CC50 [28] was 49.2 µM, the GI50 [29] was 10.8 µM and the CC50 [29] was 60 µM. For the same compound, the GI50 [30] was 15.4 µM, the CC50 [30] was 54.5 µM and the GI50 [31] was 11.7 µM. For the same compound, the CC50 [31] was 50.3 µM, the GI50 [32] was 17.8 µM and the CC50 [32] was over 100 µM. The GI50 [33] was 15.6 µM, the CC50 [33] was 54.9 µM and the GI50 [34] was 5.5 µM. It also gave a CC50 [34] of over 100 µM, a GI50 [35] of 5.11 µM and a CC50 [35] of 48.8 µM.
Compound `CN(C)c1nc(NCCNS(=O)(=O)c2ccc(C(=O)/C=C/c3ccc(Cl)cc3)cc2)nc(N2CCOCC2)n1` [23e] has an activity at 10 µM [1] of 6.74%, a GI50 [2] of 3.38 µM and a CC50 [2] of over 100 µM. For the same compound, the GI50 [3] was 2.55 µM, the CC50 [3] was over 100 µM and the GI50 [4] was 14.4 µM. For the same compound, the CC50 [4] was 56.4 µM, the GI50 [5] was 14.8 µM and the CC50 [5] was 55.7 µM. The GI50 [6] was 17.5 µM, the CC50 [6] was 65.8 µM and the GI50 [7] was 14.4 µM. The CC50 [7] was 52.4 µM, the GI50 [8] was 14 µM and the CC50 [8] was 53.3 µM. It also gave a GI50 [9] of 16.7 µM, a CC50 [9] of 70.8 µM and a GI50 [10] of 16.7 µM. It also gave a CC50 [10] of 56.7 µM, a GI50 [11] of 11.7 µM and a CC50 [11] of 50.7 µM. The GI50 [12] was 2.07 µM, the CC50 [12] was 9.93 µM and the GI50 [13] was 3.21 µM. It also gave a CC50 [13] of 36.4 µM, a GI50 [14] of 16.9 µM and a CC50 [14] of over 100 µM. It also gave a GI50 [15] of 8.46 µM, a CC50 [15] of 50.2 µM and a GI50 [16] of 14.7 µM. It also gave a CC50 [16] of 52.9 µM, a GI50 [17] of 14.2 µM and a CC50 [17] of 52.1 µM. The GI50 [18] was 8.16 µM, the CC50 [18] was 45.9 µM and the GI50 [19] was 15.1 µM. For the same compound, the CC50 [19] was 54.2 µM, the GI50 [20] was 14.1 µM and the CC50 [20] was 56.9 µM. The GI50 [21] was 15.5 µM, the CC50 [21] was 53.9 µM and the GI50 [22] was 11.4 µM. The CC50 [22] was 49.1 µM, the GI50 [23] was 14.8 µM and the CC50 [23] was 54.5 µM. For the same compound, the GI50 [24] was 15.3 µM, the CC50 [24] was 59.5 µM and the GI50 [25] was 13.5 µM. The CC50 [25] was 51.3 µM, the GI50 [26] was 11.2 µM and the CC50 [26] was 54.7 µM. For the same compound, the GI50 [27] was 12.8 µM, the CC50 [27] was 57.1 µM and the GI50 [28] was 11.4 µM. It also gave a CC50 [28] of 48.4 µM, a GI50 [29] of 13 µM and a CC50 [29] of 67 µM. For the same compound, the GI50 [30] was 17.2 µM, the CC50 [30] was 67.3 µM and the GI50 [31] was 13.3 µM. It also gave a CC50 [31] of 52.7 µM, a GI50 [32] of 15.8 µM and a CC50 [32] of over 100 µM. The GI50 [33] was 15.3 µM, the CC50 [33] was 56 µM and the GI50 [34] was 16.7 µM. The CC50 [34] was over 100 µM, the GI50 [35] was 11 µM and the CC50 [35] was 56 µM.
